Reference: patent publication US20140024663A1, “ATB(0,+) AMINO ACID TRANSPORTER AS A DRUG TARGET FOR TREATMENT OF ESTROGEN RECEPTOR-POSITIVE BREAST CANCER” (GEORGIA HEALTH SCIENCES UNIVERSITY RESEARCH INSTITUTE, INC., priority 2012, published 2014)

What was measured:
Assay type in all cases: cell-based, human
[1] = test system: SLC6A14 promoter in BT474 cells; test: SLC6A14-promoter luciferase reporter assay; settings: BT474, estradiol 10 nM, normalized with β-galactosidase activity
Protocol: (§1) FIGS. 2A-2C. Regulation of SLC6A14 expression by estrogen/ER. In FIG. 2A, ZR75.1 and BT474 cells were cultured for 5-6 passages in control medium (10% fetal bovine serum with phenol red) and phenol red-free medium (10% or 5% charcoal-stripped fetal bovine serum), and then the levels of ERa mRNA and SLC6A14 mRNA were determined by RT-PCR (P1, P2, P3, P4, P5, and P6 refer to passage numbers). In FIG. 2B, BT474 cells were treated with estradiol (10 nM) in the presence or absence of antiestrogens (1 μM) for 24 h, and then used for RT-PCR analysis of SLC6A14 mRNA and ERa mRNA (E2, estradiol; TAM, tamoxifen; 4-OH TAM, 4-hydroxytamoxifen; ICI 182780, FULVESTRANT™). […] Following the treatment, the reporter activity was measured. […]
(§2) Analysis of SLC6A14 as an estrogen/ER target. The influence of estrogen on SLC6A14 expression was assessed in ER-positive breast cancer cells (ZR75.1 and BT474) by culturing them for several passages in the absence of phenol red, and then monitoring the levels of SLC6A14 mRNA. […] Luciferase activity was measured in cell lysates using Luciferase Assay Reagent (Promega). β-galactosidase activity in the same cell lysates was used for normalization of the promoter activity for differences in transfection efficiency.

BT474 cells = test: SLC6A14 and ER mRNA by RT-PCR after estradiol/antiestrogen treatment; settings: 24 h
Protocol: as §1, §2

MCF7 cells = test: SLC6A14 mRNA by RT-PCR in phenol red-free medium with or without estradiol; settings: estradiol 10 nM, 24 h, versus absence of estradiol
Protocol: FIG. 11. Estrogen-dependent suppression of the efficacy of α-MT to induce ASNS and CHOP expression in MCF7 cells. MCF7 cells were cultured in a phenol red-free medium in the absence or presence of estradiol (E2, 10 nM) for 24 h and then treated without or with α-MT (2.5 mM, 24 h). The cells were then used for analysis of SLC6A14, asparagine synthetase (ASNS), and CHOP mRNA levels by RT-PCR. Hypoxanthine/guanine phosphoribosyltransferase-1 (HPRT1) mRNA levels were used as an internal control.
RT-PCR. Total RNA was isolated using TRIZOL™ (Invitrogen). 2 μg of RNA was reverse transcribed using the GeneAmp PCR System (Applied Biosystems, Branchburg, N.J.). PCR reaction was performed under optimal conditions specific for each of the primer pairs. GAPDH (glyceraldehyde-3-phosphate dehydrogenase) or HPRT1 (hypoxanthine/guanine phosphoribosyl transferase-1) were used as internal controls. PCR products were size-fractionated on agarose gel, stained with ethidium bromide and imaged using Alpha Imager (Santa Clara, Calif.). Densitometry was performed on PCR bands and normalized to the internal control. Normalized values were used to compare mRNA levels of target genes. Primers used for PCR were as follows.

In the case of `C[C@]12CC[C@@H]3c4ccc(O)cc4CC[C@H]3[C@@H]1CC[C@@H]2O` [estradiol], the “enhancement of SLC6A14-promoter (luciferase) activity” value [1] is reported as 6 fold, the “SLC6A14 mRNA levels” value (BT474 cells; BT474, estradiol 10 nM) is reported as “increased” and the “expression of ER” value (BT474 cells; BT474, estradiol) is reported as “did not have any noticeable effect”. The “expression of SLC6A14” value (MCF7 cells) was “higher”.
